Test results from PubChem BioAssay AID1671221.

Target: Tyrosine-protein kinase Blk (Homo sapiens) (UniProt P51451)
Test: BLK kinase inhibitors, dose response, biochemical, Z'-LYTE FRET, direct format, recombinant human (AID 1671221)
Conditions: Z'-LYTE FRET peptide phosphorylation

Sequence of Tyrosine-protein kinase Blk (Homo sapiens) (P51451 whole entry, looked up): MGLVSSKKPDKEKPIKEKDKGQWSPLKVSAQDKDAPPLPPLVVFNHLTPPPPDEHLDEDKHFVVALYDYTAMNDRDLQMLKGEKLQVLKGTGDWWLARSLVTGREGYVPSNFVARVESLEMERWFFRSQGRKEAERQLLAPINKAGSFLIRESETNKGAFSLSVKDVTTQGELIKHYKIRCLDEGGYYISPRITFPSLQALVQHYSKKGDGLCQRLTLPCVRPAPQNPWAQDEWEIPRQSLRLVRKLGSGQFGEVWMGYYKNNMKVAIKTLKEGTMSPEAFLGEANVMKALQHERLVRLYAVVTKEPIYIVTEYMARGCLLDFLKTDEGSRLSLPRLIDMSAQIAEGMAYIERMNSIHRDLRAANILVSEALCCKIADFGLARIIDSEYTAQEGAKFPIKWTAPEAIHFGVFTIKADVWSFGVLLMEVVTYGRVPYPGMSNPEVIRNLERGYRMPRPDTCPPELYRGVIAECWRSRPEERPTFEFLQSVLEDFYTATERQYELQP

IC50: 1160 nM
Structure (SMILES): COc1cc2ncnc(Nc3cccc(Cl)c3)c2cc1OC
